≈ marks a conversion by molar mass, not a printed value. Values belong to the molecule of their own block, whether it stands above or below them.
What was measured:
Test in all cases: in vitro antibacterial evaluation, MIC by broth dilution
Assay type in all cases: cell-based
Enterococcus sp. = conditions: broth dilution, 18 hours at 35° C.
Description: (§1) Methods for in vitro Antibacterial Evaluation (Table 1)
(§2) The minimum inhibitory concentration (MIC), the lowest concentration of the antibiotic which inhibits growth of the test organism, is determined by the broth dilution method using Muller-Hinton II […] (Baltimore Biological Laboratories) following the recommendations of the National Committee for Clinical Laboratory Standards [Methods for dilution antimicrobial susceptibility tests for bacteria that grow aerobically, approved standard M7-A2, National Committee for Clinical Laboratory Standards, Villanova, Pa.].
(§3) An inoculum level of 5×10^5 CFU/mL, and a range of antibiotic concentrations (64-0.06 μg/mL) is used. […] The test organisms include a spectrum of Gram-positive bacteria comprised of Staphylococcus sp., Streptococcus sp. and Enterococcus sp. These organisms include recent clinical isolates that are resistant to methicillin, penicillin and/or vancomycin.

Staphylococcus sp. = system: Staphylococcus sp.
Description: as §1, §2, §3

Streptococcus sp. = conditions: broth dilution, 18 hours at 35° C.
Description: as §1, §2, §3

Escherichia coli = conditions: 18 hours at 35° C.
Description: as §2, §3

[1] = broth dilution, 18 hours at 35° C.

MIC Enterococcus faecalis (GC 2242) (Enterococcus sp.): 4 µg/mL (≈ 2.69 µM)
MIC Enterococcus faecalis (GC 2691) (Enterococcus sp.): 2 µg/mL (≈ 1.34 µM)
MIC Enterococcus faecalis (GC 3059) (Enterococcus sp.): 2 µg/mL (≈ 1.34 µM)
MIC Enterococcus faecalis (GC 4552) (Enterococcus sp.): 4 µg/mL (≈ 2.69 µM)
MIC Enterococcus faecalis (ATCC 29212) (Enterococcus sp.; strain ATCC 29212): 4 µg/mL (≈ 2.69 µM)
MIC Enterococcus faecium (GC 2243) (Enterococcus sp.; strain GC 2243): 2 µg/mL (≈ 1.34 µM)
MIC Enterococcus faecalis (GC 4552) (Enterococcus sp.; strain GC 4552): 4 µg/mL (≈ 2.69 µM)
MIC Enterococcus faecalis (GC 4553) (Enterococcus sp.; strain GC 4553): 4 µg/mL (≈ 2.69 µM)
MIC Enterococcus faecalis (GC 4554) (Enterococcus sp.; strain GC 4554): 4 µg/mL (≈ 2.69 µM)
MIC Enterococcus faecium (GC 4556) (Enterococcus sp.; strain GC 4556): 2 µg/mL (≈ 1.34 µM)
MIC Enterococcus faecium (GC 4557) (Enterococcus sp.; strain GC 4557): 2 µg/mL (≈ 1.34 µM)
MIC Enterococcus avium (GC 4558) (Enterococcus sp.; strain GC 4558): 2 µg/mL (≈ 1.34 µM)
MIC Enterococcus faecalis (GC 6189) (Enterococcus sp.; strain GC 6189): 2 µg/mL (≈ 1.34 µM)
MIC Enterococcus faecalis (GC 2242) (Enterococcus sp.; inoculum 5×10^5 CFU/mL, strain GC 2242): 4 µg/mL (≈ 2.69 µM)
MIC Enterococcus faecalis (GC 2691) (Enterococcus sp.; inoculum 5×10^5 CFU/mL, strain GC 2691): 2 µg/mL (≈ 1.34 µM)
MIC Enterococcus faecalis (GC 3059) (Enterococcus sp.; inoculum 5×10^5 CFU/mL, strain GC 3059): 2 µg/mL (≈ 1.34 µM)
MIC Coagulase Negative Staphylococcus (GC 4547) (Staphylococcus sp.; [1]): 4 µg/mL (≈ 2.69 µM)
MIC Coagulase Negative Staphylococcus (GC 4548) (Staphylococcus sp.; [1]): 2 µg/mL (≈ 1.34 µM)
MIC Coagulase Negative Staphylococcus (GC 4549) (Staphylococcus sp.; [1]): 1 µg/mL (≈ 0.672 µM)
MIC Coagulase Negative Staphylococcus (GC 4551) (Staphylococcus sp.; [1]): 4 µg/mL (≈ 2.69 µM)
MIC Coagulase Negative Staphylococcus (GC 6257) (Staphylococcus sp.; [1]): 1 µg/mL (≈ 0.672 µM)
MIC Staphylococcus aureus (ATCC 29213) (Staphylococcus sp.; [1]): 2 µg/mL (≈ 1.34 µM)
MIC Staphylococcus aureus (GC 1131) (Staphylococcus sp.; [1]): 2 µg/mL (≈ 1.34 µM)
MIC Staphylococcus aureus (GC 3051) (Staphylococcus sp.; [1]): 2 µg/mL (≈ 1.34 µM)
MIC Staphylococcus aureus (GC 3053) (Staphylococcus sp.; [1]): 2 µg/mL (≈ 1.34 µM)
MIC Staphylococcus aureus (GC 4541) (Staphylococcus sp.; [1]): 2 µg/mL (≈ 1.34 µM)
MIC Staphylococcus aureus (GC 4542) (Staphylococcus sp.; [1]): 2 µg/mL (≈ 1.34 µM)
MIC Staphylococcus aureus (GC 4544) (Staphylococcus sp.; [1]): 4 µg/mL (≈ 2.69 µM)
MIC Staphylococcus aureus (GC 4545) (Staphylococcus sp.; [1]): 2 µg/mL (≈ 1.34 µM)
MIC Staphylococcus aureus-SMITH (GC 4543) (Staphylococcus sp.; [1]): 2 µg/mL (≈ 1.34 µM)
MIC Staphylococcus aureus (ATCC 29213) (Staphylococcus sp.; broth dilution, 18 hours at 35° C.; strain ATCC 29213): 2 µg/mL (≈ 1.34 µM)
MIC Staphylococcus aureus (GC 1131) (Staphylococcus sp.; broth dilution, 18 hours at 35° C.; strain GC 1131): 2 µg/mL (≈ 1.34 µM)
MIC Staphylococcus aureus (GC 3051) (Staphylococcus sp.; broth dilution, 18 hours at 35° C.; strain GC 3051): 2 µg/mL (≈ 1.34 µM)
MIC Staphylococcus aureus (GC 3053) (Staphylococcus sp.; broth dilution, 18 hours at 35° C.; strain GC 3053): 2 µg/mL (≈ 1.34 µM)
MIC Staphylococcus aureus (GC 4541) (Staphylococcus sp.; broth dilution, 18 hours at 35° C.; strain GC 4541): 2 µg/mL (≈ 1.34 µM)
MIC Staphylococcus aureus (GC 4542) (Staphylococcus sp.; broth dilution, 18 hours at 35° C.; strain GC 4542): 2 µg/mL (≈ 1.34 µM)
MIC Staphylococcus aureus-SMITH (GC 4543) (Staphylococcus sp.; broth dilution, 18 hours at 35° C.; strain GC 4543): 2 µg/mL (≈ 1.34 µM)
MIC Staphylococcus aureus (GC 4544) (Staphylococcus sp.; broth dilution, 18 hours at 35° C.; strain GC 4544): 4 µg/mL (≈ 2.69 µM)
MIC Staphylococcus aureus (GC 4545) (Staphylococcus sp.; broth dilution, 18 hours at 35° C.; strain GC 4545): 2 µg/mL (≈ 1.34 µM)
MIC Coagulase Negative Staphylococcus (GC 4547) (Staphylococcus sp.; broth dilution, 18 hours at 35° C.; strain GC 4547): 4 µg/mL (≈ 2.69 µM)
MIC Coagulase Negative Staphylococcus (GC 4548) (Staphylococcus sp.; broth dilution, 18 hours at 35° C.; strain GC 4548): 2 µg/mL (≈ 1.34 µM)
MIC Coagulase Negative Staphylococcus (GC 4549) (Staphylococcus sp.; broth dilution, 18 hours at 35° C.; strain GC 4549): 1 µg/mL (≈ 0.672 µM)
MIC Coagulase Negative Staphylococcus (GC 4551) (Staphylococcus sp.; broth dilution, 18 hours at 35° C.; strain GC 4551): 4 µg/mL (≈ 2.69 µM)
MIC Coagulase Negative Staphylococcus (GC 6257) (Staphylococcus sp.; broth dilution, 18 hours at 35° C.; strain GC 6257): 1 µg/mL (≈ 0.672 µM)
MIC Streptococcus agalactiae (GC 4564) (Streptococcus sp.): <0.06 µg/mL
MIC Streptococcus pneumoniae (ATCC 6301) (Streptococcus sp.): <0.06 µg/mL
MIC Streptococcus pneumoniae (GC 1894) (Streptococcus sp.): <0.06 µg/mL
MIC Streptococcus pneumoniae (GC 4565) (Streptococcus sp.): <0.06 µg/mL
MIC Streptococcus pyogenes (GC 4563) (Streptococcus sp.): <0.06 µg/mL
MIC Streptococcus pneumoniae (ATCC 6301) (Streptococcus sp.; inoculum 5×10^5 CFU/mL, strain ATCC 6301): <0.06 µg/mL
MIC Streptococcus pneumoniae (GC 1894) (Streptococcus sp.; inoculum 5×10^5 CFU/mL, strain GC 1894): <0.06 µg/mL
MIC Streptococcus pyogenes (GC 4563) (Streptococcus sp.; inoculum 5×10^5 CFU/mL, strain GC 4563): <0.06 µg/mL
MIC Streptococcus agalactiae (GC 4564) (Streptococcus sp.; inoculum 5×10^5 CFU/mL, strain GC 4564): <0.06 µg/mL
MIC Streptococcus pneumoniae (GC 4565) (Streptococcus sp.; inoculum 5×10^5 CFU/mL, strain GC 4565): <0.06 µg/mL
SMILES: CC(c1ccccc1)C1NC(=O)CNC(=O)C(CO)NC(=O)C(C(O)C2CNC(=N)N2C2OC(CO)C(O)C(O)C2O)NC(=O)C(C(O)C2CNC(=N)N2)NC(=O)C(Cc2ccc(OC3OC(CO)C(OC4OC(CO)C(OCC=C(c5ccccc5)c5ccccc5)C(O)C4O)C(O)C3O)cc2)NC1=O (centres unmarked) [Example 241a]
MIC Staphylococcus haemolyticus (GC 4546) (Staphylococcus sp.; [1]): 2 µg/mL (≈ 1.34 µM)
MIC Staphylococcus haemolyticus (GC 4546) (Staphylococcus sp.; broth dilution, 18 hours at 35° C.; strain GC 4546): 2 µg/mL (≈ 1.34 µM)

MIC Escherichia coli (GC 4559) (Escherichia coli): >64 µg/mL
MIC Escherichia coli (GC 4560) (Escherichia coli): 2 µg/mL (≈ 1.44 µM)
MIC Enterococcus faecalis (ATCC 29212) (Enterococcus sp.; Enterococcus faecalis (ATCC 29212)): 32 µg/mL (≈ 23 µM)
MIC Enterococcus faecalis (GC 4552) (Enterococcus sp.; Enterococcus faecalis (GC 4552)): 32 µg/mL (≈ 23 µM)
MIC Enterococcus faecalis (ATCC 29212) (Enterococcus sp.): 32 µg/mL (≈ 23 µM)
MIC Enterococcus faecalis (GC 2242) (Enterococcus sp.): 16 µg/mL (≈ 11.5 µM)
MIC Enterococcus faecalis (GC 4552) (Enterococcus sp.): 32 µg/mL (≈ 23 µM)
MIC Enterococcus faecalis (GC 2242) (Enterococcus sp.; strain GC 2242): 16 µg/mL (≈ 11.5 µM)
MIC Coagulase Negative Staphylococcus (GC 4537) (Staphylococcus sp.; [1]): 8 µg/mL (≈ 5.74 µM)
MIC Coagulase Negative Staphylococcus (GC 4538) (Staphylococcus sp.; [1]): 4 µg/mL (≈ 2.87 µM)
MIC Coagulase Negative Staphylococcus (GC 4547) (Staphylococcus sp.; [1]): 4 µg/mL (≈ 2.87 µM)
MIC Staphylococcus aureus (ATCC 29213) (Staphylococcus sp.; strain ATCC 29213; broth dilution, 18 hours at 35° C.): 4 µg/mL (≈ 2.87 µM)
MIC Staphylococcus aureus (GC 1131) (Staphylococcus sp.; strain GC 1131; broth dilution, 18 hours at 35° C.): 4 µg/mL (≈ 2.87 µM)
MIC Staphylococcus aureus (GC 4535) (Staphylococcus sp.; strain GC 4535; broth dilution, 18 hours at 35° C.): 8 µg/mL (≈ 5.74 µM)
MIC Staphylococcus aureus-SMITH (GC 4536) (Staphylococcus sp.; strain GC 4536; broth dilution, 18 hours at 35° C.): 4 µg/mL (≈ 2.87 µM)
MIC Coagulase Negative Staphylococcus (GC 4537) (Staphylococcus sp.; strain GC 4537; broth dilution, 18 hours at 35° C.): 8 µg/mL (≈ 5.74 µM)
MIC Coagulase Negative Staphylococcus (GC 4538) (Staphylococcus sp.; strain GC 4538; broth dilution, 18 hours at 35° C.): 4 µg/mL (≈ 2.87 µM)
MIC Coagulase Negative Staphylococcus (GC 4547) (Staphylococcus sp.; strain GC 4547; broth dilution, 18 hours at 35° C.): 4 µg/mL (≈ 2.87 µM)
SMILES: CCCCCC(=O)OCC1OC(Oc2ccc(CC3NC(=O)C(C(C)c4ccccc4)NC(=O)CNC(=O)C(CO)NC(=O)C(C(O)C4CNC(=N)N4C4OC(CO)C(O)C(O)C4O)NC(=O)C(C(O)C4CNC(=N)N4)NC3=O)cc2)C(O)C(O)C1OC1OC(CO)C(O)C(O)C1O (stereo not drawn) [Example 95a, Cyclo[glycyl-β-methylphenylalanyl-O-(6-O-hexanoyl-4-O-hexopranosylhexopyranosyl)-tyrosyl-3-(2-iminoimidazolidin-4-yl)sery-3-(3-hexopyranosyl-2-iminoimidazolidin-4-yl)-serylseryl]]
